Key:
[1] = target: T1, Organic anion transporter 3 (OAT3) (Rattus norvegicus, UniProt Q9R1U7); experiment: TP_TRANSPORTER: inhibition of Indoxyl sulfate uptake (indoxyl sulfate: 2 uM, CMPF: 1000 uM) in Xenopus laevis oocytes; type: functional, cell-based, Oocyte; set-up: scale not given: the % may be the effect or the level left; conditions: probe indoxyl sulfate (2 uM), read-out: Activity
T1 sequence (Q9R1U7 whole entry): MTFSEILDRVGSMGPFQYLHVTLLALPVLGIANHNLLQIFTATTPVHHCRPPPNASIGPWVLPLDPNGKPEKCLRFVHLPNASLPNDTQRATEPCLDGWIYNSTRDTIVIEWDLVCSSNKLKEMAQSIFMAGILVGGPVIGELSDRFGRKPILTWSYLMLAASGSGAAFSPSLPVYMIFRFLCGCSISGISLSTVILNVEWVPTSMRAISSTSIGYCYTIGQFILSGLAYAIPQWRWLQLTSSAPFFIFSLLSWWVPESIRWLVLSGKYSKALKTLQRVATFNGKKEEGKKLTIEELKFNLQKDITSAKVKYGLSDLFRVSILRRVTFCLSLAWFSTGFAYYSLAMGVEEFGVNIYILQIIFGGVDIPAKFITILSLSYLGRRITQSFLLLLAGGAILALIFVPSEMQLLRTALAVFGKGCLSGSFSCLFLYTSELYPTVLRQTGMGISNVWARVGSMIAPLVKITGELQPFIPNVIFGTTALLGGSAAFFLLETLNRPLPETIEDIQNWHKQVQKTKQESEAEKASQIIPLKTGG

[2] = target: T1, Organic anion transporter 3 (OAT3); experiment: TP_TRANSPORTER: inhibition of Indoxyl sulfate uptake (indoxyl sulfate: 2 uM, 4-Hydroxyphenylacetic acid: 1000 uM) in Xenopus laevis oocytes; type: functional, cell-based, Oocyte; set-up: scale not given: the % may be the effect or the level left; conditions: probe indoxyl sulfate (2 uM), read-out: Activity
[3] = target: T2, Organic anion transporter 3 (Rattus norvegicus, UniProt Q9R1U7); experiment: TP_TRANSPORTER: inhibition of Indoxyl sulfate uptake (indoxyl sulfate: 2 uM, Hippurate: 1000 uM) in Xenopus laevis oocytes; type: functional, cell-based; set-up: scale not given: the % may be the effect or the level left; conditions: oocyte
T2 sequence (Q9R1U7 whole entry): T1 sequence (Q9R1U7 whole entry)

[4] = target: T1, Organic anion transporter 3 (OAT3); experiment: TP_TRANSPORTER: inhibition of Indoxyl sulfate uptake (indoxyl sulfate: 2 uM, Indoleacetic acid: 1000 uM) in Xenopus laevis oocytes; type: functional, cell-based, Oocyte; set-up: scale not given: the % may be the effect or the level left; conditions: probe indoxyl sulfate (2 uM), read-out: Activity
[5] = target: T1, Organic anion transporter 3 (OAT3); experiment: TP_TRANSPORTER: inhibition of Indoxyl sulfate uptake (indoxyl sulfate: 2 uM, 2-Hydroxycinnamic acid: 1000 uM) in Xenopus laevis oocytes; type: functional, cell-based, Oocyte; set-up: scale not given: the % may be the effect or the level left; conditions: probe indoxyl sulfate (2 uM), read-out: Activity
[6] = target: T1, Organic anion transporter 3 (OAT3); experiment: TP_TRANSPORTER: inhibition of Indoxyl sulfate uptake (indoxyl sulfate: 2 uM, 4-Hydroxybenzoic acid: 1000 uM) in Xenopus laevis oocytes; type: functional, cell-based, Oocyte; set-up: scale not given: the % may be the effect or the level left; conditions: probe indoxyl sulfate (2 uM), read-out: Activity
[7] = substrate: O=S(=O)(O)Oc1c[nH]c2ccccc12; experiment: TP_TRANSPORTER: uptake in Xenopus laevis oocytes; type: functional, cell-based, Oocyte

CCCc1oc(CCC(=O)O)c(C(=O)O)c1C
activity at 1000 µM [1]: 8.38%

O=C(O)Cc1ccc(O)cc1
activity at 1000 µM [2]: 29.7%

O=C(O)CNC(=O)c1ccccc1 [HIPPURIC ACID]
Activity [3]: 24.6%

CC(=O)Oc1c[nH]c2ccccc12 [INDOLE ACETATE]
activity at 1000 µM [4]: 51.2%

O=C(O)/C=C/c1ccccc1O [O-COUMARIC ACID]
activity at 1000 µM [5]: 39.5%

O=C(O)c1ccc(O)cc1 [PARABEN]
activity at 1000 µM [6]: 22.1%

B1: Organic anion transporter 3 (Rattus norvegicus) (protein)
chain: T1 sequence (Q9R1U7 whole entry)
Km [7]: 158 µM

From ChEMBL document CHEMBL2073897, “Major role of organic anion transporter 3 in the transport of indoxyl sulfate in the kidney” (Kidney Int, 2002)
